According to US9796777B2, “Methods of treating malignant tumors” (Canimguide Therapeutics AB, priority 2007, dated 2017):

Legend:
PBMC [1] = experiment: Human ex vivo model: IL-2 induced proliferation of PBMC in the presence of albumin peptides; conditions: alone or in combination
[2] = target: T1, β2-integrin LFA-1 (CD11a) (Homo sapiens, UniProt P20701); experiment: Immunocytochemical staining of PBMC and THP-1 with anti-integrin (CD11a) antibody with or without albumin peptides; format: binding; conditions: for binding to LFA-1: Table 9 summary; for effect on binding of the LFA-1 antibody (HI 111) to LFA-1: mononuclear blood cells
T1 construct: endogenous in cells; host or cells: human PBMC (healthy controls, cancer patients) and THP-1 monocytic cell line (ATCC)
Experimental: Cytospin preparations of mononuclear blood cells from healthy controls, cancer patients and a monocytic cell line, THP-1, were prepared (as described under materials and methods), dried and stored at −70° C. In the immunocytological staining, unspecific staining was blocked by incubation with 10% human AB serum. Some of the slides were preincubated for 60 minutes with albumin peptides at a concentration of 40 μg/ml, added to this 10% AB serum, as indicated in the FIG. 8 A-F. The staining procedure was then continued as described in material and methods. The staining intensity of slides stained with and without preincubation with the peptides was recorded semi quantitatively using a standard light microscope.
PBMC were separated as described above. Cultured THP-1 cells (obtained from the American Type Culture Collection through LGL Nordic AB, Sweden) were carefully washed and suspended in RPMI1640. PBMC and THP-1 were immediately spun down on pre-cleaned microscope slides in a Shandon Cytospin (Shandon Scientific Ltd, UK) at 1000 RPM for 7 min at 2.5 or 5×10^4 cells per slide. The slides were left to dry at room temperature over night, after which they were wrapped in parafilm and stored at −70° C. Immediately before use, the cytospins were thawed and fixed with acetone for 5 min at room temperature. The cytospins were first blocked with 10% normal human AB-serum with and without albumin peptides (40 ␣g/ml) for 1 h before staining. Primary antibody, consisting of a monoclonal mouse anti-human CD11a (clone HI111, BD Biosciences) diluted in Tris buffered saline (TBS, pH 7.6) at 5 μg/ml (THP-1) or 1 µg/ml (PBMC), was added. The slides were incubated for 30 min and then washed in TBS followed by Envision-Alkaline Phosphatase (Dako Norden A/S, Denmark) for 30 min. After additional washing in TBS, the slides were incubated in alkaline phoshatase substrate consisting of Fast Red TR salt (Sigma), naphtol AS-MX (Sigma) and 5 mM levamisol (Sigma) to block endogenous alkaline phosphatase activity, for 20 min followed by washing in TBS. They were then counterstained in Mayer's haematoxylin for 1 minute and mounted in Glycergel (Dako Norden NS). Monoclonal mouse IgG1 against an irrelevant antigen (Aspergillus niger glukosoxidase, Dako Norden NS) was used as a negative control. All incubations were performed at room temperature in a moist chamber.
FIG. 24. Inhibition of the binding of anti-LFA-1, mab HI111, to mononuclear blood cells by 3028 peptide and fragments 3325 and 3218. A standard immunohistochemical staining procedure using acetone fixation, 10% human AB-serum for blocking, incubation with HI 111 and a secondary antibody (Ultravision, an alkaline phosphate conjugated polymer attached to Fab-fragments of goat anti-mouse Ig), followed by development with Fast Red. The slides were then mounted in Glycergel. Preincubation with peptides added to the AB serum was as follows: A. No peptide added, B. peptide 3028, C. The C-terminal part (3218), and D. The N-terminal part (3325).

rabbit anti-3028 = experiment: Inhibition of rabbit anti-3028 ELISA by albumin peptides; format: binding; conditions: Table 9 summary
Experimental: To test if albumin peptides inhibited the binding of the rabbit anti-3028 to 3028 coated wells, rabbit antisera, diluted 1/1000 000 in ELISA reagent diluent, was pre-incubated for 1 hr at room temperature with the indicated concentrations of the peptides. 100 μl of the […], or, alternatively, the monoclonal antibody mixed with peptides, was then added to 3028 coated wells and the ELISA carried out as described.

PBMCs = experiment: PHA-induced proliferation of PBMC in the presence of albumin peptides and/or dHSA; format: cell-based, human; conditions: PBMCs from two healthy controls; two PHA concentrations
Text: Venous blood was drawn from healthy volunteers or from cancer patients in glass vacuum tubes with acid dextrose citrate solution A as anti-coagulant (Vacutainer, Becton Dickinson, Franklin Lakes, N.J.). Erythrocytes were removed by sedimentation on 2% dextran T500 solution (Amersham Pharmacia Biotech AB, Uppsala, Sweden) in 0.9% NaCl (this step was omitted for cultures with PHA-stimulation-see below). […] For cell cultures with PHA-stimulation, PBMC were washed in Hank's Balanced Salt Solution (HBSS) with 10% autologous plasma instead of RPMI/2% HSA. […] The cell suspension was stained with Turk's solution and the number of lymphocytes and monocytes in the PBMC preparation were counted in a hemocytometer. PBMCs were suspended in RPMI/2% HSA and the cell concentration adjusted to 5×10^5 lymphocytes/ml.
100 μl of the cell suspension were seeded into round-bottomed microtiter plates (Corning, N.Y., USA) followed by 100 μl of culture medium consisting of RPMI 1640 (Flow Laboratories, Irvine, Scotland) supplemented with 200 IU/ml Penicillin, 200 μg/ml Streptomycin (Flow laboratories) and 20% heat inactivated autologous serum. Phytohemagglutinin (PHA-P, Sigma Chemical Co, St. Louis, Mo.) at a final concentration of 5 or 10 μg/ml was then added.
All culture conditions were set up in triplicate wells. […] Mean values of disintegrations per minute (dpm) of triplicates were used for the calculations.

PBMC [3] = experiment: LPS-induced IL-6 production by PBMC, effect of peptides; format: cell-based, human
Experimental: 100 μl of culture medium consisting of RPMI1640 supplemented with 200 IU/ml penicillin, 200 μg/ml streptomycin, 4 mM L-glutamine (Sigma Chemical, Mo., US) and 20% fresh heat-inactivated autologous serum were added to un-coated or -pre-coated microtiter plates followed by 100 μl of PBMC suspension (5×10^4 lymphocytes) in RPMI/2% HSA with peptides at the indicated concentrations. Lipoplysaccharide (LPS, Sigma Chemical Co, MO, US) was added at a final concentration of 0.05 ng/ml. […] All assay conditions were set up in triplicate wells. Supernatants (SNs) were harvested after 24 hrs and residual cells were removed by centrifugation in a refrigerated centrifuge (Beckman) at 2600×g for 5 minutes. SNs were frozen and stored at −70° C. IL-6 in cell culture SNs was measured by ELISA using the DuoSet® ELISA development kit for human IL-6 (R&D Systems Europe, Ltd., Abingdon, UK) following the manufacturer's recommended procedures. The lower limit of detection was 3.1 pg/ml. Samples were analysed as mean of triplicate wells.

PBMC [4] = experiment: IL-2 induced proliferation of PBMC with albumin peptides in coated and uncoated tissue culture plates; format: cell-based, human; conditions: PBMC from healthy individuals; peptide 5 μg/ml final; 7 days
Experimental: A mixture of 1 mg/ml IgG in a solution of 9 mg/ml HSA in RPMI (HSA/IgG) was also prepared. 200 μl of HSA or HSA/IgG were then added to each well of the plate. The plates were incubated at 4° C. for 30 minutes after which the wells were washed twice with 200 μl of RPMI1640. The coated plates were used immediately. […] PBMC, isolated from healthy individuals, were diluted in RPMI/2% HSA and peptides were added directly to the cell suspension at a concentration of 10 μg/ml.

[5] = tested on: natural killer (NK) cells; experiment: Cytotoxic activity of natural killer (NK) cells against K562 (NKTEST, flow cytometry); format: cell-based, human; conditions: four healthy donors; peptides 10 ug/ml; effector:target ratio 40:1
Experimental: Mononuclear cells were separated by standard Ficoll-paque Plus (Pharmacia AB, Sweden) density gradient centrifugation from heparinized blood obtained from healthy donors. NK cell cytotoxic activity of the mononuclear cells was then tested using a commercial kit (NKTEST, Orpegen Pharma GmbH, Heidelberg, Germany) following the manufacturers protocol. Briefly, the kit contains cryopreserved, NK-sensitive target cells (K562) labelled with a lipophilic green fluorescent membrane dye, which enables discrimination of effector and target cells. After incubation with effector cells, killed target cells are identified by a DNA-stain, which penetrates and specifically stain the nuclei of dead target cells. This way the percentage of killed targets can be determined by flow cytometry. The mononuclear cells were pre-incubated for 30 min at 37° C. with the indicated peptides (peptides have been described previously) at 10 ug/ml. Target cells were then added, giving an effector:target ratio of 40:1, and the cell mixture incubated at 37° C. for 3-4 hours. Samples were analysed on a FACSCalibur (BD Biosciences, San Jose, Calif.).

T1 sequence (P20701 26-1170): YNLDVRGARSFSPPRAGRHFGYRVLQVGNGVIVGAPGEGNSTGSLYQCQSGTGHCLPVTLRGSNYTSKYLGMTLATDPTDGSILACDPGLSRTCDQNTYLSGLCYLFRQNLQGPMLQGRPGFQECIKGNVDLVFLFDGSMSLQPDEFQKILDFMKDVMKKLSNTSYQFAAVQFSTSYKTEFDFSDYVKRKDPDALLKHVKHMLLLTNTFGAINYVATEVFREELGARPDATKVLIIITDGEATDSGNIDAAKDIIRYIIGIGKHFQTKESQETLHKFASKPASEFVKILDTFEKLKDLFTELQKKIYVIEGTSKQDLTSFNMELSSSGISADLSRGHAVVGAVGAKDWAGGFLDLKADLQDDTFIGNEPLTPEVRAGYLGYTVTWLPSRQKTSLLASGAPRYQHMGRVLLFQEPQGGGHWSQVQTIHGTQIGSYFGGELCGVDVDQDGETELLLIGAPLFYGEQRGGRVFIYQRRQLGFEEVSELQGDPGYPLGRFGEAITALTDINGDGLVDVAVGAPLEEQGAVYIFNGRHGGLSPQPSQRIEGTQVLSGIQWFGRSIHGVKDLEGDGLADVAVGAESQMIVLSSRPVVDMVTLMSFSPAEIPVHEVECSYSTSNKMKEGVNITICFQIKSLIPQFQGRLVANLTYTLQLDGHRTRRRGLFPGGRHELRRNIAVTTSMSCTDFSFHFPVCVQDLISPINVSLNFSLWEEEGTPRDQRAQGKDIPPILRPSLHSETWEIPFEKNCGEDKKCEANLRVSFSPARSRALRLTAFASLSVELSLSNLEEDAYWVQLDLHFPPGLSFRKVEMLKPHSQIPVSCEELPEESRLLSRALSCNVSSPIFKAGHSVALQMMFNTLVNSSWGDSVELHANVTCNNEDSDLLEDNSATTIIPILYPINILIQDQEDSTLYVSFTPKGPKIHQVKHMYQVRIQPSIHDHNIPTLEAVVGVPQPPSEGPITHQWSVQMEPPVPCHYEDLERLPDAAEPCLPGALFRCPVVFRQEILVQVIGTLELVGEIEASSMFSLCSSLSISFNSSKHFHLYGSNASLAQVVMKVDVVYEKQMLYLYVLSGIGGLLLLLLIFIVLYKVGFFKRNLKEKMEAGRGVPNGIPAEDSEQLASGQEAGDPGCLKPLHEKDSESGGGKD
T1 sequence (P05107 23-769 partner): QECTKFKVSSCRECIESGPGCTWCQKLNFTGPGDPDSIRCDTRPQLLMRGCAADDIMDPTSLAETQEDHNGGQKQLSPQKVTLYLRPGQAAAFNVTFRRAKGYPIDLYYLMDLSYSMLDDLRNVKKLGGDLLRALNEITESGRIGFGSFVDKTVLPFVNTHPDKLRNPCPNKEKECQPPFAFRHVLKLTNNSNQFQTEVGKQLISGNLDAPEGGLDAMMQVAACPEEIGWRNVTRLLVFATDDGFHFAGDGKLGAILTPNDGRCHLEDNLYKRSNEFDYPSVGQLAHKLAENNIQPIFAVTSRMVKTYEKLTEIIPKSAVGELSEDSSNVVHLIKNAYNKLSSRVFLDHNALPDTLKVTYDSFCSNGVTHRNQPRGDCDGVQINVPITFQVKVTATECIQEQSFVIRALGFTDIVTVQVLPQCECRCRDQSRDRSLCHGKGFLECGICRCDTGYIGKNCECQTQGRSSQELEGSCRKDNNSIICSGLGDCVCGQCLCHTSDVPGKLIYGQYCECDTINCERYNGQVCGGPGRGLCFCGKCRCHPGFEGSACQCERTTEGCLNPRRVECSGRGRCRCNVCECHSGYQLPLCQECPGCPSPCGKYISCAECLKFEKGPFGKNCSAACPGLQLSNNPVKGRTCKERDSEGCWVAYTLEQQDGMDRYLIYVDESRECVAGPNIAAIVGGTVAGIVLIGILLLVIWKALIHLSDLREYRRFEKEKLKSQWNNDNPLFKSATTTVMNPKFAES

Row | binding to LFA-1 [2] | binding to affinity purified antibodies (rabbit anti-3028) | Substance | neutralisation of the inhibitory effect of peptide 3028 on IL-2 induced proliferation (PBMC [1]) | effect on binding of the LFA-1 antibody (HI 111) to LFA-1 [2] | effect on dHSA modulated PHA stimulated proliferation (PBMCs) | effect on LPS induced IL-6 production (PBMC [3]; healthy control PBMC1) | effect on LPS induced IL-6 production (PBMC [3]; healthy control PBMC 2) | effect on LPS induced IL-6 production (PBMC [3]; renal cell carcinoma patient) | effect on IL-2 induced proliferation (PBMC [4]) | effect on LPS induced IL-6 production (PBMC [3]; melanoma patients) | effect on LPS induced IL-6 production (PBMC [3]; two healthy controls) | effect on percent specific lysis of K562 target cells [5]
1 | Weak binding | Does not bind | peptide 3218: C-terminal part of peptide 3028 (EPQNLIK) | not neutralised | inhibit the binding of mAb HI 111 to LFA-1 | – | – | – | – | – | – | – | –
2 | – | – | NEETFLKKYLYEIARRHPYFYAP [peptide 3026] | – | – | inhibited the stimulatory activity of dHSA | clear biphasic effect | no certain effect | stimulatory effect | no statistically significant activity | – | – | –
3 | Weak binding | – | VFDEFKPLVE [peptide 3325, N-terminal part of peptide 3028] | not neutralised | inhibit the binding of mAb HI 111 to LFA-1 | – | – | – | – | – | – | – | –
4 | – | – | ELFEQLGEYKFQNALLVR [peptide 3027] | – | – | – | – | – | stimulatory effect | no statistically significant activity | stimulated one of the melanoma patients | slightly stimulatory in one of the controls and had an inhibitory effect in the other | Inhibition was not seen
